Assay results reported in patent publication US11207312B2, “Metallo-beta-lactamase inhibitors and methods of use thereof” (priority 2017, dated 2021).

How the values were obtained:
VIM-2 = VIM-2 (Escherichia coli, UniProt Q5U7L7); assay: biochemical; conditions: CCF2-FA fluorescence assay; read-out: VIM2 IC50
[1] = test system: P. aeruginosa MB9798 (efflux+, IMP-1 plasmid); conditions: for MB9798 MITC95 P. aeruginosa uM Efflux WT: efflux + (MB9798) strain, imipenem at 2 μg/mL, in the presence of a class A, C, D serine β-lactamase inhibitor closely related to relebactam; for Efflux ratio: fold difference between efflux+ (MB9798) and efflux− (MB9799) strains
In short: (§1)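 Isogenic P. aeruginosa PAO1 strains (efflux+ and multiple-efflux-pump-disrupted) carrying plasmid IMP-1, with inducible AmpC, tested by broth microdilution. Imipenem and/or ceftazidime fixed, usually at CLSI breakpoint, plus fixed class A/C β-lactamase inhibitor; titrated MBL inhibitor concentration restoring susceptibility recorded and compared between strains as efflux fold difference.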

IMP-1 = IMP-1 (Serratia marcescens, UniProt P52699); assay: biochemical; conditions: CCF2-FA fluorescence assay, 2 hours at 25° C.; read-out: IMP1 IC50
Sequence of IMP-1 (P52699 whole entry, looked up, species assumed): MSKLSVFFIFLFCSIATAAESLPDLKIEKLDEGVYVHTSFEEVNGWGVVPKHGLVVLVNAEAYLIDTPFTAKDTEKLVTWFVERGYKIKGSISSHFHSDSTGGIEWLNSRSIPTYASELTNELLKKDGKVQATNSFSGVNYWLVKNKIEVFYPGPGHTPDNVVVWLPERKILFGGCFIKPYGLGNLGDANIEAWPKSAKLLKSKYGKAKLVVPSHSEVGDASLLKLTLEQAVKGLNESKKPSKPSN
In short: (§2)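 Enzyme (NDM-1 1 pM, IMP-1 2 pM, VIM-1 30 pM final) and 1.25 μM CCF2-FA incubated with inhibitor (20 to 0.00063 μM) for 2 h at 25° C in 100 mM KH2PO4 pH 7, 0.005% Tween-20, 10 μM ZnSO4. Fluorescence read at ex 405/em 460 nm; IC50 by 4-parameter fit.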

VIM-1 = VIM-1 (Pseudomonas aeruginosa (strain ATCC 15692 / DSM 22644 / CIP 104116 / JCM 14847 / LMG 12228 / 1C / PRS 101 / PAO1), UniProt A0A0F7KYQ8); assay: biochemical; conditions: CCF2-FA fluorescence assay, 2 hours at 25° C.; read-out: VIM1 IC50
In short: as §2

NDM-1 = NDM-1 (Klebsiella pneumoniae, UniProt C7C422); assay: biochemical; assay type: biochemical; conditions: CCF2-FA fluorescence assay, 2 hours at 25° C.
Sequence of NDM-1 (C7C422 whole entry, looked up, species assumed): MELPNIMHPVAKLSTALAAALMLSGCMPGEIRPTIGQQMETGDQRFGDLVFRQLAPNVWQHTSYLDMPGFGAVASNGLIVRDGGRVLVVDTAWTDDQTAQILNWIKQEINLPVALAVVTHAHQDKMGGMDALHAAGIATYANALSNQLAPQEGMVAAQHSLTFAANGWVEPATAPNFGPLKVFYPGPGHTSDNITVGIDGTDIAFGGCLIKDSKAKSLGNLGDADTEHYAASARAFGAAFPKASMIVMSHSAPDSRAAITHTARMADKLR
In short: as §2

[2] = test system: Klebsiella pneumoniae expressing VIM-1 (IHMA599644); assay type: cell-based; conditions: with imipenem 1 μg/ml; 95% inhibition of bacterial growth
In short: (§3)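 Clinical MBL-producing strains grown overnight at 35° C, diluted 1:100 into CAMHB, then exposed to test compound with imipenem at 1 μg/ml for 22–24 h at 35° C. Absorbance read-out; MITC95 is the lowest compound concentration giving 95% growth inhibition with imipenem.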

[3] = test system: Escherichia coli expressing NDM-1 (CLB30016); assay type: cell-based; conditions: with imipenem 1 μg/ml; 95% inhibition of bacterial growth
In short: as §3

[4] = test system: Serratia marcescens expressing IMP-1 (CL5741); assay type: cell-based; conditions: with imipenem 1 μg/ml; 95% inhibition of bacterial growth
In short: as §3

[5] = test system: P. aeruginosa MB9799 (efflux-, IMP-1 plasmid); assay type: cell-based, Pseudomonas aeruginosa; conditions: efflux − (MB9799) strain; imipenem at 2 μg/mL; in the presence of a class A, C, D serine β-lactamase inhibitor closely related to relebactam
In short: as §1

| SMILES | IC50 (VIM-2) [nM] | MB9798 MITC95 P. aeruginosa uM Efflux WT [1] [µM] | Efflux ratio [1] | IC50 (IMP-1) [nM] | IC50 (VIM-1) [nM] | IC50 (NDM-1) [nM] | IHMA599644 K. pneumoniae MITC95 VIM [2] [µM] | CLB30016 E. coli MITC95 NDM [3] [µM] | CL5741 S. marcescens MITC95 IMP [4] [µM] | MB9799 MITC95 P. aeruginosa uM Efflux Mutant [5] [µM] |
| --- | --- | --- | --- | --- | --- | --- | --- | --- | --- | --- |
| NC[C@@H](O)CNS(=O)(=O)c1ccc(N2CCN(CCO)C(=O)C2)c(-c2nn[nH]n2)c1S(N)(=O)=O [Example 146, (R)-N1-(3-amino-2-hydroxypropyl)-4-(4-(2-hydroxyethyl)-3-oxopiperazin-1-yl)-3-(2H-tetrazol-5-yl)benzene-1,2-disulfonamide] | 1.77 | 1.56 | 1.00 | 2.25 | 0.31 | 2.32 | 6.25 | 1.56 | 3.13 | 1.56 |
| NCCN1CCN(c2ccc(S(=O)(=O)NC[C@H](O)CN)c(S(N)(=O)=O)c2-c2nn[nH]n2)CC1=O [Example 147, (R)-N1-(3-amino-2-hydroxypropyl)-4-(4-(2-aminoethyl)-3-oxopiperazin-1-yl)-3-(2H-tetrazol-5-yl)benzene-1,2-disulfonamide] | 56.2 | 3.13 | 4.00 | 39.6 | 0.28 | 27 | 1.56 | 0.39 | 0.78 | 0.78 |
| NS(=O)(=O)c1c(S(=O)(=O)N[C@@H]2CCNC2)ccc(N2CCCC(O)C2=O)c1-c1nn[nH]n1 (stereo partly drawn) [Example 148, 4-(3-hydroxy-2-oxopiperidin-1-yl)-N1-((R)-pyrrolidin-3-yl)-3-(2H-tetrazol-5-yl)benzene-1,2-disulfonamide] | 1.5 | 3.13 | 2.00 | 28.1 | 0.35 | 0.76 | 3.13 | 0.39 | 1.56 | 1.56 |
| NCC1CCN(c2ccc(S(=O)(=O)N[C@@H]3CCNC3)c(S(N)(=O)=O)c2-c2nn[nH]n2)C(=O)C1 (stereo partly shown) [Example 149] | 48.1 | 6.25 | 2.00 | 104 | 0.96 | 4.46 | 1.56 | 0.20 | 1.56 | 3.13 |
| NOC1CCCN(c2ccc(S(=O)(=O)N[C@@H]3CCNC3)c(S(N)(=O)=O)c2-c2nn[nH]n2)C1=O (stereo partly shown) [Example 150] | 1.52 | 12.50 | 4.00 | 17.1 | 0.38 | 0.62 | 12.50 | 1.56 | 6.25 | 3.13 |
| NS(=O)(=O)c1c(S(=O)(=O)N[C@@H]2CCNC2)ccc(N2CCCC(=O)C2=O)c1-c1nn[nH]n1 [Example 151, (R)-4-(2,3-dioxopiperidin-1-yl)-N1-(pyrrolidin-3-yl)-3-(2H-tetrazol-5-yl) benzene-1,2-disulfonamide] | 5.92 | 12.50 | 4.00 | 6.7 | 1.15 | 0.53 | 6.25 | 0.39 | 1.56 | 3.13 |
| NS(=O)(=O)c1c(S(=O)(=O)N[C@@H]2CCNC2)ccc(N2CCCC(=NO)C2=O)c1-c1nn[nH]n1 [Example 152, (R)-4-(3-(hydroxyimino)-2-oxopiperidin-1-yl)-N1-(pyrrolidin-3-yl)-3-(2H-tetrazol-5-yl)benzene-1,2-disulfonamide] | 0.74 | 3.13 | 2.00 | 6.8 | 0.16 | 0.08 | 3.13 | 0.39 | 1.56 | 1.56 |
| NS(=O)(=O)c1c(S(=O)(=O)N[C@@H]2CCNC2)ccc(N2CCCNC2=O)c1-c1nn[nH]n1 [Example 153, (R)-4-(2-oxotetrahydropyrimidin-1(2H)-yl)-N1-(pyrrolidin-3-yl)-3-(2H-tetrazol-5-yl)benzene-1,2-disulfonamide] | 1.1 | 3.13 | 2.00 | 7.23 | 0.2 | 0.21 | 3.13 | 0.78 | 1.56 | 1.56 |
| NS(=O)(=O)c1c(S(=O)(=O)N[C@@H]2CCNC2)ccc(N2CCCCC2=O)c1-c1nn[nH]n1 [Example 154, (R)-4-(2-oxopiperidin-1-yl)-N1-(pyrrolidin-3-yl)-3-(2H-tetrazol-5-yl)benzene-1,2-disulfonamide] | 0.73 | 3.13 | 2.00 | 8.46 | 0.26 | 0.35 | 6.25 | 1.56 | 1.56 | 1.56 |
| N[C@@H]1CCCN(c2ccc(S(=O)(=O)N[C@@H]3CCNC3)c(S(N)(=O)=O)c2-c2nn[nH]n2)C1=O [Example 155] | 6.87 | 6.25 | 2.00 | 81.4 | 2.14 | 5.12 | 1.56 | 0.39 | 3.13 | 3.13 |
| N[C@H]1CCCN(c2ccc(S(=O)(=O)N[C@@H]3CCNC3)c(S(N)(=O)=O)c2-c2nn[nH]n2)C1=O [Example 156, 4-((S)-3-amino-2-oxopiperidin-1-yl)-N1-((R)-pyrrolidin-3-yl)-3-(2H-tetrazol-5-yl)benzene-1,2-disulfonamide] | 7.16 | 12.50 | 8.00 | 67.7 | 2.14 | 4.64 | 1.56 | 0.39 | 1.56 | 1.56 |
| NS(=O)(=O)c1c(S(=O)(=O)N[C@@H]2CCNC2)ccc(N2CCC(CO)CC2=O)c1-c1nn[nH]n1 (stereo partly drawn) [Example 157, 4-(4-(hydroxymethyl)-2-oxopiperidin-1-yl)-N1-((R)-pyrrolidin-3-yl)-3-(2H-tetrazol-5-yl)benzene-1,2-disulfonamide] | 1.85 | 3.13 | 1.00 | 6.9 | 0.25 | 0.24 | 6.25 | 1.56 | 3.13 | 3.13 |
| NC1CCN(c2ccc(S(=O)(=O)N[C@@H]3CCNC3)c(S(N)(=O)=O)c2-c2nn[nH]n2)C(=O)C1 (stereo partly drawn) [Example 158, 4-(4-amino-2-oxopiperidin-1-yl)-N1-((R)-pyrrolidin-3-yl)-3-(2H-tetrazol-5-yl)benzene-1,2-disulfonamide] | 22.8 | 6.25 | 2.00 | 88.4 | 1.22 | 7.19 | 0.78 | 0.10 | 1.56 | 3.13 |
